Experimental data reported in ChEMBL document CHEMBL1268836, “Rational design of novel pyrrolidine derivatives as orally active neurokinin-3 receptor antagonists” (Bioorg Med Chem Lett, 2010).
pKi: −log10 of the molar value. Converted amounts (≈) assume the structure as drawn. The source made the active and inactive calls. The calls are words filed in the database; no cut-off is given here.

What was measured:
[1] = Aqueous solubility of the compound; format: physicochemical
[2] = Lipophilicity, log D of the compound; format: physicochemical; conditions: octanol/water
Gerbillinae [3] = experiment: Antipsychotic activity gerbils assessed as reversal of senktide-induced locomotor activity at 30 mg/kg, po administered before senktide challenge; format: functional, organism-based; set-up: dose 30 mg/kg
[4] = Ratio of drug level in brain to plasma in gerbils at 30 mg/kg, po; format: ADME, organism-based; set-up: dose 30 mg/kg, route oral; conditions: gerbillinae, read-out: BPR
Gerbillinae [5] = experiment: Antipsychotic activity gerbils assessed as reversal of senktide-induced locomotor activity at 100 mg/kg, po administered before senktide challenge; format: functional, organism-based; set-up: dose 100 mg/kg
Substance-P receptor = Substance-P receptor (Homo sapiens, UniProt P25103); experiment: Displacement of [3H]substance P from human neurokinin NK1 receptor expressed in CHO cell; format: cell-based
Chain of Substance-P receptor (P25103 whole entry): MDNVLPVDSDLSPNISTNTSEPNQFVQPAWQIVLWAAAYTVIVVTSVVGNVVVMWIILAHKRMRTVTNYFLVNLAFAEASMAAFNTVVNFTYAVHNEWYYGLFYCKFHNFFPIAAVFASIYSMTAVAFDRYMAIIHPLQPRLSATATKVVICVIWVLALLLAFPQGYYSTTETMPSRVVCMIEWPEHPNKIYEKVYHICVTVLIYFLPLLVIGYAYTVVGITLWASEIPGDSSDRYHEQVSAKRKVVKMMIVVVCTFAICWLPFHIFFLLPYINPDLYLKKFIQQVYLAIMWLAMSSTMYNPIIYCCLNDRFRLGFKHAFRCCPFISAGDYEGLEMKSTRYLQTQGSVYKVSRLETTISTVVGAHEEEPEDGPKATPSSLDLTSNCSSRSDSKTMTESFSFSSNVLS

Neuromedin-K receptor = biological target: T1, Neuromedin-K receptor (Homo sapiens, UniProt P29371); experiment: Displacement of [3H]SR142801 from human neurokinin NK3 receptor expressed in HEK293-EBNA cells; format: cell-based; conditions: for pKi: read-out: Ki; for Ki: hek293-ebna
T1 sequence (P29371 whole entry): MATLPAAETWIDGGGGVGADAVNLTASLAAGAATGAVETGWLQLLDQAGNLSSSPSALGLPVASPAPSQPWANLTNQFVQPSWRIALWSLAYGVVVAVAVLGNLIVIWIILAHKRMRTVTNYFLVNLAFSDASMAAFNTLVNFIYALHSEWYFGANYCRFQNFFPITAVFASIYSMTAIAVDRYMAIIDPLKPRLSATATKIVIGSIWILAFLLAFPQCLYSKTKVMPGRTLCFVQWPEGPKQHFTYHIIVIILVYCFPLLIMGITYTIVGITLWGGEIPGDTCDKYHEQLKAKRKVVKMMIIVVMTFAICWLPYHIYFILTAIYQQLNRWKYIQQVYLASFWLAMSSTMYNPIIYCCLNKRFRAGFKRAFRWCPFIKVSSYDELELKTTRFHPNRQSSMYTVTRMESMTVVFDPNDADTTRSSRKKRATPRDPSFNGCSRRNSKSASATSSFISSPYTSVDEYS

SMILES | pKi (Substance-P receptor) | pKi (Neuromedin-K receptor) | Ki (Neuromedin-K receptor) | other results
CN(C)CCN1CCN(C(=O)N2C[C@H](c3ccc(Cl)c(Cl)c3)[C@@H](N(C)Cc3ccc(C(F)(F)F)c(F)c3)C2)CC1 |  |  |  | solubility [1]: 495 µg/mL (≈ 819 µM); logD [2]: 2.9; Activity (Gerbillinae [3]): Active; Kp [4]: 1.6
CC(=O)N(C)C1(c2ccccc2)CCN(CCC[C@]2(c3ccc(Cl)c(Cl)c3)CCCN(C(=O)c3ccccc3)C2)CC1 |  |  |  | Activity (Gerbillinae [5]): Active
CN(C(=O)C(C)(C)c1cc(C(F)(F)F)cc(C(F)(F)F)c1)[C@H]1CN(C(=O)N(CCO)CCO)C[C@@H]1c1ccc(F)cc1 (racemic) | 8.96 | 6.72 |  | 
CC(=O)N1CCN(C(=O)N2C[C@H](c3ccc(F)cc3)[C@@H](N(C)C(=O)C(C)(C)c3cc(C(F)(F)F)cc(C(F)(F)F)c3)C2)CC1 (racemic) | 8.85 | 6.43 |  | 
CN(C(=O)C(C)(C)c1cc(C(F)(F)F)cc(C(F)(F)F)c1)[C@H]1CN(C(=O)N2CCN(S(C)(=O)=O)CC2)C[C@@H]1c1ccccc1 (racemic) |  | 7.00 |  | 
CN(C(=O)C(C)(C)c1cc(C(F)(F)F)cc(C(F)(F)F)c1)[C@H]1CNC[C@@H]1c1ccc(F)cc1 (racemic) | 9.05 |  | Not Active | 
CN(C(=O)C(C)(C)c1cc(C(F)(F)F)cc(C(F)(F)F)c1)[C@H]1CN(C(=O)NCCO)C[C@@H]1c1ccc(F)cc1 (racemic) | 9.22 | 6.53 |  | 
CN(C(=O)C(C)(C)c1cc(C(F)(F)F)cc(C(F)(F)F)c1)[C@H]1CN(Cc2ccccc2)C[C@@H]1c1ccc(F)cc1 (racemic) |  |  | Not Active | 
CS(=O)(=O)N1CCN(C(=O)N2C[C@H](NC(=O)c3cc(C(F)(F)F)cc(C(F)(F)F)c3)[C@@H](c3ccccc3)C2)CC1 (racemic) |  |  | Not Active | 
CN(Cc1ccc(C(F)(F)F)c(F)c1)[C@H]1CN(C(=O)N2CCN(S(C)(=O)=O)CC2)C[C@@H]1c1ccc(Cl)c(Cl)c1 (racemic) |  |  |  | solubility [1]: < 1 µg/mL; logD [2]: > 4

More lines, main results first:

pKi (Substance-P receptor) | pKi (Neuromedin-K receptor) | Ki (Neuromedin-K receptor) | SMILES | other results
8.68 | 6.78 |  | CN(C(=O)C(C)(C)c1cc(C(F)(F)F)cc(C(F)(F)F)c1)[C@H]1CN(C(=O)N2CCN(S(C)(=O)=O)CC2)C[C@@H]1c1ccc(F)cc1 (racemic) | 
 |  | Not Active | CN(C(=O)Cc1cc(C(F)(F)F)cc(C(F)(F)F)c1)[C@H]1CN(C(=O)N2CCN(S(C)(=O)=O)CC2)C[C@@H]1c1ccccc1 (racemic) | 
 |  | Not Active | CN(CC(C)(C)c1cc(C(F)(F)F)cc(C(F)(F)F)c1)[C@H]1CN(C(=O)N2CCN(S(C)(=O)=O)CC2)C[C@@H]1c1ccccc1 (racemic) | 
 |  | Not Active | CN(CCc1cc(C(F)(F)F)cc(C(F)(F)F)c1)[C@H]1CN(C(=O)N2CCN(S(C)(=O)=O)CC2)C[C@@H]1c1ccccc1 (racemic) | 
 |  | Not Active | CN(C(=O)c1cc(C(F)(F)F)cc(C(F)(F)F)c1)[C@H]1CN(C(=O)N2CCN(S(C)(=O)=O)CC2)C[C@@H]1c1ccccc1 (racemic) | 
 | 5.89 |  | CN(Cc1cc(C(F)(F)F)cc(C(F)(F)F)c1)[C@H]1CN(C(=O)N2CCN(S(C)(=O)=O)CC2)C[C@@H]1c1ccccc1 (racemic) | 
